Source: patent US6277859A, “Morphinan derivative and its pharmaceutical applications” (priority 1992, dated 2001)
Structures can show the parent of a compound that is named as a salt.

How the values were obtained:
Wistar rats = test: Evaluation of diuretic action; format: in vivo, rat (male Wistar); settings: sc, rat, s.c., urine output for 5 h after 20 ml/kg saline oral; for ED200: read-out: ED200, diuretic action (dose giving urine output of 200, non-dosed group = 100); for ED500: read-out: ED500, diuretic action (dose giving urine output of 500, non-dosed group = 100)
Procedure: Evaluation of Diuretic Action
7-8 week old male Wistar rats were used in this test after prohibiting from drinking water for 1 hour before testing. After discharging any urine accumulated in the bladder by gently stimulating the lower abdomens of the animals, the drug was administered subcutaneously. After 30 minutes, the animals were then forcibly given 20 ml/kg of physiological saline orally. The animals were then placed in metabolic cages immediately after administration of the drug (2 animals/cage) and urine output for 5 hours after loading with physiological saline was measured. Drug efficacy was expressed in the form of those doses resulting in urine outputs of 200 and 500, respectively, when the urine output of a non-dosed group was taken to be 100. Those doses were expressed as the ED200 and ED500 values, respectively.

δ receptor = target: T1, δ receptor (Mus musculus, UniProt P32300); test: Ke with NTI in isolated mouse vas deference preparation; format: cell-based, mouse (male ddy); settings: for Ke NTI: NTI (δ)
T1 construct: The isolated vas deference was filled with Krebes-Henseleit solution; from tissue; host or cells: isolated vas deferens of male ddy mouse
Procedure: (§1) A male ddy mouse was used in this test. The isolated vas deference was filled with Krebes-Henseleit solution (NaCl 118 mM; KCl 4.7 mM; CaCl2 2.5 mM; KH2 PO4 1.1 mM; NaHCO3 25 mM; and glucose 10 mM) warmed to 37° C. and suspended in a Magnus tube ventilated with 5% carbon dioxide and 95% oxygen. Electrical stimulus was performed at 0.1 Hz for 5.0 ms by means of ring-shaped platinum electrodes located above and below. Tissue contractions were recorded on a polygraph using an isometric transducer.
(§2) Then after adequately washing with nutrient solution and the contraction reaction stabilized, naloxone, a μ […], NTI, a δ […], or norBNI, a κ […], were added and the test compound was again cumulatively added after roughly 20 minutes. The Ke value was calculated using the following calculation formula from the difference in the efficacies of both agonists.
(§3) Ke=[Conc. of added agonist]/(IC50 ratio-1)
(§4) IC50 ratio IC50 in the presence of agonist/IC50 in the absence of agonist

κ receptor = target: T2, κ receptor (Mus musculus, UniProt P33534); test: Ke with norBNI in isolated mouse vas deference preparation; format: cell-based, mouse (male ddy); settings: for Ke norBNI: norBNI (κ)
T2 construct: The isolated vas deference was filled with Krebes-Henseleit solution; from tissue; host or cells: isolated vas deferens of male ddy mouse
Procedure: as §1, §2, §3, §4

μ receptor = target: T3, μ receptor (Mus musculus, UniProt P42866); test: Ke with naloxone in isolated mouse vas deference preparation; format: cell-based, mouse (male ddy)
T3 construct: The isolated vas deference was filled with Krebes-Henseleit solution; from tissue; host or cells: isolated vas deferens of male ddy mouse
Procedure: as §1, §2, §3, §4

T1 sequence (P32300 whole entry): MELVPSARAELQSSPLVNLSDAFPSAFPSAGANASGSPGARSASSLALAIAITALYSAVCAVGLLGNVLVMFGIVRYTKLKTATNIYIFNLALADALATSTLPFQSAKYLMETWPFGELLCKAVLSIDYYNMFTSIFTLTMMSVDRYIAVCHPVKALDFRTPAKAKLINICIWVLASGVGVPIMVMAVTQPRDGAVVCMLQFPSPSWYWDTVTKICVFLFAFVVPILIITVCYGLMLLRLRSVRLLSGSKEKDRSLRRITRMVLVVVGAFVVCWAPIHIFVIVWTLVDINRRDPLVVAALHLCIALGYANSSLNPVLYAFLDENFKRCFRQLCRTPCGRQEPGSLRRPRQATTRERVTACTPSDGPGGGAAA
T3 sequence (P42866 whole entry): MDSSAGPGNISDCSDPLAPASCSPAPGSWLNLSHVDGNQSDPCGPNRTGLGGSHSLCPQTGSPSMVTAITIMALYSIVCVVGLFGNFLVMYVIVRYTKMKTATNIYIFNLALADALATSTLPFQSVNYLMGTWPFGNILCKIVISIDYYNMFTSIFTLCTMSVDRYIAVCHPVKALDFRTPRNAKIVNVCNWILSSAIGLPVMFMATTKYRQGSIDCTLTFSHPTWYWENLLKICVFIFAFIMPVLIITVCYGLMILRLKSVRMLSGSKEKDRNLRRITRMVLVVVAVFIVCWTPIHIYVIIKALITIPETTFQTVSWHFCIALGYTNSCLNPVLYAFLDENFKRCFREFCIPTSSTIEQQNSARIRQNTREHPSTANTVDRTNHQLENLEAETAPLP
T2 sequence (P33534 whole entry): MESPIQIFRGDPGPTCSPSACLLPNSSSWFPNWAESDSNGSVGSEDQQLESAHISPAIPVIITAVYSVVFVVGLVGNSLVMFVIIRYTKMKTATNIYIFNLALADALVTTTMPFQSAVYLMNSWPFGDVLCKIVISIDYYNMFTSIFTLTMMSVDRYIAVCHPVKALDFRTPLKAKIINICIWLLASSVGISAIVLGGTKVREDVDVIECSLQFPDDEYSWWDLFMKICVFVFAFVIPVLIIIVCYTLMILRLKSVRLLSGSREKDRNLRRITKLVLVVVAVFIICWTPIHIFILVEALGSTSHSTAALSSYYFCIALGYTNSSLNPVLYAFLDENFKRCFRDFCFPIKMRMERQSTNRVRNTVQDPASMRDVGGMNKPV

Structure (SMILES) | ED200 (Wistar rats) [mg/kg] | Ke NTI (δ receptor) [nM] | selective agonist for κ receptors (in words) (κ receptor) | Ke norBNI (κ receptor) [nM] | further results
CN(C(=O)OCc1ccccc1)[C@@H]1CC[C@@]2(O)[C@H]3Cc4ccc(O)c5c4[C@@]2(CCN3CC2CC2)[C@H]1O5 [Compound 56, 17-cyclopropylmethyl-3,14β-dihydroxy-4,5α-epoxy-60-(N-methylbenzyloxycarbamido)morphinan.hydrochloride] | 0.0028 |  |  |  | 
CN(C(=O)CCc1ccccc1)[C@@H]1CC[C@@]2(O)[C@H]3Cc4ccc(O)c5c4[C@@]2(CCN3CC2CC2)[C@H]1O5 [Compound 57, 17-cyclopropylmethyl-3,14β-dihydroxy-4,5α-epoxy-60-(N-methyl-3-phenylpropionamido) morphinan.hydrochloride] |  | 747 | selective agonists for κ receptors | 0.0124 | 
CN(C(=O)/C=C/c1ccc(C(F)(F)F)cc1)[C@@H]1CC[C@@]2(O)[C@H]3Cc4ccc(O)c5c4[C@@]2(CCN3CC2CC2)[C@H]1O5 [Compound 73, 17-cyclopropylmethyl-3,14,β-dihydroxy-4,5α-epoxy-6β-(N-methyl-4-trifluoromethylcinnamamido) morphinan.tartrate] |  | 78 | selective agonists for κ receptors | 0.272 | Ke Naloxone (μ receptor): 524 nM
CCCCOC(=O)N(C)[C@@H]1CC[C@@]2(O)[C@H]3Cc4ccc(O)c5c4[C@@]2(CCN3CC2CC2)[C@H]1O5 [Compound 59, 17-cyclopropylmethyl-3,14β-dihydroxy-4,5α-epoxy-6β-(N-methylbutyroxycarbamido)morphinan.tartrate] |  | 47.3 | selective agonists for κ receptors | 0.151 | Ke Naloxone (μ receptor): 21.3 nM
CCCCCCC(=O)N(C)[C@H]1CC[C@@]2(O)[C@H]3Cc4ccc(O)c5c4[C@@]2(CCN3CC2CC2)[C@H]1O5 [Compound 46, 17-cyclopropylmethyl-3,14β-dihydroxy-4,5α-epoxy-6α-(N-methylheptanamido)morphinan.hydrochloride] |  |  | selective agonists for κ receptors | 0.440 | 
CN(C(=O)/C=C/C1CCCCC1)[C@H]1CC[C@@]2(O)[C@H]3Cc4ccc(O)c5c4[C@@]2(CCN3CC2CC2)[C@H]1O5 [Compound 50, 17-cyclopropylmethyl-4,5α-epoxy-3,14β-dihydroxy-6α-(N-methyl-trans-3-cyclohexylacrylamido)morphinan.hydrochloride] | 0.0021 |  |  |  | 
CN(C(=O)/C=C/c1cccc([N+](=O)[O-])c1)[C@@H]1CC[C@@]2(O)[C@H]3Cc4ccc(O)c5c4[C@@]2(CCN3CC2CC2)[C@H]1O5 [Compound 104, 17-cyclopropylmethyl-3,14β-dihydroxy-4,5α-epoxy-6β-(N-methyl-3-nitrocinnamamido)morphinan.tartrate] |  | 89 |  | 1.40 | Ke Naloxone (μ receptor): 185 nM
CC(=O)Oc1ccc2c3c1O[C@H]1[C@H](N(C)C(=O)/C=C/c4cccc(C(F)(F)F)c4)CC[C@@]4(O)[C@@H](C2)N(CC2CC2)CC[C@]314 [Compound 141, 17-cyclopropylmethyl-3-acetoxy-14β-hydroxy-4,5α-epoxy-6β-(N-methyl-3-trifluoromethylcinnamamido)morphinan.tartrate] |  | 184 | selective agonists for κ receptors | 1.39 | Ke Naloxone (μ receptor): 142 nM
O=C(Cc1ccc(Cl)c(Cl)c1)N[C@H]1CC[C@@]2(O)[C@H]3Cc4ccc(O)c5c4[C@@]2(CCN3CC2CC2)[C@H]1O5 [Compound 52, 17-cyclopropylmethyl-4,5α-epoxy-3,14β-dihydroxy-6α-(3,4-dichlorophenylacetoamido) morphinan.hydrochloride] |  |  | selective agonists for κ receptors |  | 
CN(C(=O)/C=C/c1ccsc1)[C@H]1CC[C@@]2(O)[C@H]3Cc4ccc(O)c5c4[C@@]2(CCN3CC2CC2)[C@H]1O5 [Compound 91, 17-cyclopropylmethyl-3,14β-dihydroxy-4,5α-epoxy-6α-[N-methyl-trans-3-(3-thienyl)acrylamido]morphinan.tartrate] | 0.0094 | 450 | selective agonists for κ receptors | 0.699 | ED500 (Wistar rats): 0.96 mg/kg
CN(C(=O)C#Cc1ccc(C(F)(F)F)cc1)[C@H]1CC[C@@]2(O)[C@H]3Cc4ccc(O)c5c4[C@@]2(CCN3CC2CC2)[C@H]1O5 [Compound 126, 17-Cyclopropylmethyl-3,14β-dihydroxy-4,5α-epoxy-6α-[N-methyl-3-(4-trifluoromethylphenyl)propiolamido] morphinan.0.5 tartrate] |  | 0.0065 |  | 1.20 | Ke Naloxone (μ receptor): 40.2 nM; selective agonist for δ receptors (in words) (δ receptor): selective agonists for δ receptors
CN(C(=O)Cc1ccc(Br)cc1)[C@H]1CC[C@@]2(O)[C@H]3Cc4ccc(O)c5c4[C@@]2(CCN3CC2CC2)[C@H]1O5 [Compound 28, 17-cyclopropylmethyl-3,14β-dihydroxy-4,5α-epoxy-6α-(N-methyl-4-bromophenylacetamido)morphinan.hydrobromide] | 0.02 |  |  |  | 
CCCCCC(=O)N(C)[C@@H]1CC[C@@]2(O)[C@H]3Cc4ccc(O)c5c4[C@@]2(CCN3CC2CC2)[C@H]1O5 [Compound 62, 17-cyclopropylmethyl-3,14β-dihydroxy-4,5α-epoxy-6β-(N-methylhexanamido)morphinan.tartrate] |  | 90.2 | selective agonists for κ receptors | 0.203 | 
CN(C(=O)Cc1cccc(C(F)(F)F)c1)[C@H]1CC[C@@]2(O)[C@H]3Cc4ccc(O)c5c4[C@@]2(CCN3CC2CC2)[C@H]1O5 [Compound 108, 17-cyclopropylmethyl-3,14β-dihydroxy-4,5α-epoxy-6α-(N-methyl-3-trifluoromethylphenylacetamido) morphinan.hydrochloride] | 0.021 |  |  |  | 
CCC/C=C/C(=O)N(C)[C@H]1CC[C@@]2(O)[C@H]3Cc4ccc(O)c5c4[C@@]2(CCN3CC2CC2)[C@H]1O5 [Compound 95, 17-cyclopropylmethyl-3,14β-dihydroxy-4,5α-epoxy-6α-(N-methyl-trans-2-hexenamido)morphinan.tartrate] | 0.0028 |  |  |  | 
C=CCN1CC[C@]23c4c5ccc(O)c4O[C@H]2[C@@H](N(C)C(=O)Cc2ccc(Cl)c(Cl)c2)CC[C@@]3(O)[C@H]1C5 [Compound 122, 17-allyl-3,14β-dihydroxy-4,5α-epoxy-6α-(N-methyl-3,4-dichlorophenylacetamido)morphinan.hydrochloride] |  | 42.7 | selective agonists for κ receptors | 0.358 | Ke Naloxone (μ receptor): 59.5 nM
CN(C(=O)Cc1csc2ccccc12)[C@H]1CC[C@@]2(O)[C@H]3Cc4ccc(O)c5c4[C@@]2(CCN3CC2CC2)[C@H]1O5 [Compound 107, 17-cyclopropylmethyl-3,14β-dihydroxy-4,5α-epoxy-6α-(N-methyl-3-benzo[b]thienylacetamido)morphinan.hydrochloride] | 0.0061 |  |  |  | ED500 (Wistar rats): 0.2 mg/kg
CN(C(=O)Cc1ccc(F)c(F)c1)[C@H]1CC[C@@]2(O)[C@H]3Cc4ccc(O)c5c4[C@@]2(CCN3CC2CC2)[C@H]1O5 [Compound 105, 17-cyclopropylmethyl-3,14β-dihydroxy-4,5α-epoxy-6α-(N-methyl-3,4-difluorophenylacetamido)morphinan.hydrochloride] | 0.019 |  |  |  | ED500 (Wistar rats): 3.3 mg/kg
CN(C(=O)/C=C/c1ccc(Cl)c(Cl)c1)[C@H]1CC[C@@]2(O)[C@H]3Cc4ccc(O)c5c4[C@@]2(CCN3CC2CC2)[C@H]1O5 [Compound 86, 17-cyclopropylmethyl-3,14β-dihydroxy-4,5α-epoxy-6α-(N-methyl-3,4-dichlorocinnamamido) morphinan.hydrochloride] | 0.0057 |  |  |  | 
CN(C(=O)CC(=O)c1ccccc1)[C@@H]1CC[C@@]2(O)[C@H]3Cc4ccc(O)c5c4[C@@]2(CCN3CC2CC2)[C@H]1O5 [Compound 103, 17-cyclopropylmethyl-3,14β-dihydroxy-4,5α-epoxy-6β-(N-methylbenzoylacetamido)morphinan.tartrate] |  |  | selective agonists for κ receptors | 0.657 | 
CN(C(=O)Cc1ccc(Cl)c(Cl)c1)[C@@H]1CC[C@@]2(O)[C@H]3Cc4ccc(O)c5c4[C@@]2(CCN3CC2CC2)[C@H]1O5 [Compound 53, 17-cyclopropylmethyl-4,5α-epoxy-3,14β-dihydroxy-6β-(N-methyl-3,4-dichlorophenylacetoamido)morphinan.hydrochloride] |  | 1676 |  | 0.21 | 
